Assay results as given in patent US20120244089A1, “USE OF THIAZOLE COMPOUND IN FLAVOR APPLICATIONS” (priority 2009, published 2012).
Entries after “also recorded” stand apart in the source; their conditions may differ.

How the values were obtained:
[1] = Flavor evaluation in a soft drink sample (orange soda); details: 5 ppb
Experimental: The flavor properties of 2-ethyl-4-methyl-2,5-dihydro-thiazole were evaluated in a soft drink sample. An orange soda was used whose ingredients included carbonated water, high fructose corn syrup, citric acid, potassium benzoate, gum acacia, natural flavor, ester gum, yellow 6, brominated vegetable oil, and red 40.

[2] = Flavor evaluation in a dairy product sample (mixed berry yogurt); details: 5 ppb
Experimental: The flavor properties of 2-ethyl-4-methyl-2,5-dihydro-thiazole were evaluated in a dairy product sample. A mixed berry yogurt sample was used whose ingredients included cultured pasteurized grade A nonfat milk, high fructose corn syrup, modified corn starch, nonfat milk, kosher gelatin, corn starch, tricalcium phosphate, natural flavor, potassium sorbate added to maintain freshness, sucralose (splenda brand,) acesulfame potassium, colored with annatto extract, vitamin A acetate, and vitamin D3.

[3] = Flavor evaluation in an oatmeal sample; details: plain instant oatmeal
Experimental: The flavor properties of 2-ethyl-4-methyl-2,5-dihydro-thiazole were evaluated in an oatmeal sample. Commercially available plain instant oatmeal was used whose ingredients included whole grain rolled oats, calcium carbonate, salt, guar gum, caramel color, reduced iron, niacinamide, vitamin A, palmitate, pyridoxine, hydrochloride, riboflavin, thiamin mononitrate, and folic acid.

[4] = Flavor evaluation in a beef broth sample; details: 4 ppb
Experimental: The flavor properties of 2-ethyl-4-methyl-2,5-dihydro-thiazole were evaluated in a beef broth sample. The beef broth sample included beef broth and less than 1% of the following: salt, MSG, hydrolyzed corn protein, hydrolyzed soy protein, hydrolyzed wheat protein, dextrose, onion powder, autolyzed yeast extract, caramel color, partially hydrogenated soybean oil, natural flavor, thiamine hydrochloride, disodium inosinate, and disodium guanylate.

[5] = Flavor description in water; details: 1 ppb
[6] = Flavor evaluation in water by a trained sensory panel, 9-point hedonic scale; details: for Flavor Intensity: 9-point hedonic scale
Experimental: The flavor properties of 2-ethyl-4-methyl-2,5-dihydro-thiazole (Formula I), 4-ethyl-2-methyl-3-thiazole (Formula II), and 4-methyl-2-propyl-2,5-dihydro-thiazole (Formula III) in water were evaluated by a trained sensory panel using the 9-point hedonic scale.

CCC1N=C(C)CS1 (stereo not shown) [Formula I, 2-ethyl-4-methyl-2,5-dihydro-thiazole]
Flavor effect [1]: provided the feel of a tangerine soda and more natural taste and having cut the acidity
Flavor effect [2]: boosted the fruity note and imparted a peach note
Flavor effect ([3]; 1 ppb): added faint sulfurous note and synergized with grain note
Flavor effect ([3]; 5 ppb): sulfurous and peach notes
Flavor effect [4]: boosted the roast note and imparted additional tropical note
Flavor notes [5]: tropical fruit, catty, peach, and berry flavor notes
Flavor Profile ([6]; 100 ppb): Tropical, fruit, peach,; also recorded: slightly catty, and meaty; also recorded: Very strong
Flavor Intensity ([6]; 100 ppb): 7.11
Flavor character, comparison with analogs ([6]; summary of the panel results): unexpected strong and long-lasting fruity character; also recorded: superior to all other structurally closely related analogs

CCC1=NC(C)SC1 (stereo not shown) [Formula II, 4-Ethyl-2-methyl-2,5-dihydro-thiazole]
Flavor Profile ([6]; 1 ppm): Nutty and cabbage
Flavor Intensity ([6]; 1 ppm): 1

CCCC1N=C(C)CS1 (stereo not shown) [Formula III, 4-Methyl-2-propyl-2,5-dihydro-thiazole]
Flavor Profile ([6]; 350 ppb): Sulfury, nutty, and skunk; also recorded: Strong
Flavor Intensity ([6]; 350 ppb): 3.33
